Test results: patent publication US20030166202A1, “P450 Monooxygenases of the cyp79 family” (priority 2000, published 2003)

T1: CYP79A2 (Arabidopsis thaliana, UniProt Q9FLC8)
T1 sequence (Q9FLC8 7-529 limits assumed): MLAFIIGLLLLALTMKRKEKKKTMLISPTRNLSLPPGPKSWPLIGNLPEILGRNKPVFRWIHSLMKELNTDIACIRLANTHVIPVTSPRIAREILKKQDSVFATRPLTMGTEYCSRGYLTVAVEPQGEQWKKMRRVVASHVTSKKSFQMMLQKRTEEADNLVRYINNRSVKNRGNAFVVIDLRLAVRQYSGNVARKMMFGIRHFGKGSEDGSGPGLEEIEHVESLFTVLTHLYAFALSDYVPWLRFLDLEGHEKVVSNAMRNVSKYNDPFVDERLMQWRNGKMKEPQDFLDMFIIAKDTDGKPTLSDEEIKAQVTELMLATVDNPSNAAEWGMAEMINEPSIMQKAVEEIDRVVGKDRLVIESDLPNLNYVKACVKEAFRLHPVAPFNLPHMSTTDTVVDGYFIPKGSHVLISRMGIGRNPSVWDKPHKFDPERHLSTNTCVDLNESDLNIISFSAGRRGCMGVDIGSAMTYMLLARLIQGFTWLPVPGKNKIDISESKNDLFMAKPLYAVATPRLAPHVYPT

T2: CYP79B2 (Arabidopsis thaliana, UniProt O81346)
T2 sequence (O81346 1-541): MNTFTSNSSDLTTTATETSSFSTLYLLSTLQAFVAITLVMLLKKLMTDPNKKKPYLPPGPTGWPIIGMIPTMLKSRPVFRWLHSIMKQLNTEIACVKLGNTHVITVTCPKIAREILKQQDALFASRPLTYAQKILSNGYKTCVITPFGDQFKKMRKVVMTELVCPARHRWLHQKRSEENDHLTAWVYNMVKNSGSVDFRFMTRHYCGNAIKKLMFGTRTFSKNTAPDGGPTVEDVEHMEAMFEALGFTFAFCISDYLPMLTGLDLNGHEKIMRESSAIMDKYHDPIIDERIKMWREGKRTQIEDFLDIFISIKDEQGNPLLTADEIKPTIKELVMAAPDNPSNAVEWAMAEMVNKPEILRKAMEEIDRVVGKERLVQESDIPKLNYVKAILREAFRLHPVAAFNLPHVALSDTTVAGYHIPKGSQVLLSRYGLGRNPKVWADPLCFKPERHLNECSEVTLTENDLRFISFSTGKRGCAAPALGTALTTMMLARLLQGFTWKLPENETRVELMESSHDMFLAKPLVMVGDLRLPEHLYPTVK


Legend:
CYP79A2 = molecular target: T1, CYP79A2; experiment: CYP79A2 activity in E. coli spheroplasts reconstituted with NADPH:cytochrome P450 oxidoreductase
CYP79F1 = CYP79F1 (Arabidopsis thaliana, UniProt Q949U1, M2A); conditions: E. coli C43(DE3) spheroplasts, GC-MS or TLC
Chain of CYP79F1 (Q949U1 whole entry M2A): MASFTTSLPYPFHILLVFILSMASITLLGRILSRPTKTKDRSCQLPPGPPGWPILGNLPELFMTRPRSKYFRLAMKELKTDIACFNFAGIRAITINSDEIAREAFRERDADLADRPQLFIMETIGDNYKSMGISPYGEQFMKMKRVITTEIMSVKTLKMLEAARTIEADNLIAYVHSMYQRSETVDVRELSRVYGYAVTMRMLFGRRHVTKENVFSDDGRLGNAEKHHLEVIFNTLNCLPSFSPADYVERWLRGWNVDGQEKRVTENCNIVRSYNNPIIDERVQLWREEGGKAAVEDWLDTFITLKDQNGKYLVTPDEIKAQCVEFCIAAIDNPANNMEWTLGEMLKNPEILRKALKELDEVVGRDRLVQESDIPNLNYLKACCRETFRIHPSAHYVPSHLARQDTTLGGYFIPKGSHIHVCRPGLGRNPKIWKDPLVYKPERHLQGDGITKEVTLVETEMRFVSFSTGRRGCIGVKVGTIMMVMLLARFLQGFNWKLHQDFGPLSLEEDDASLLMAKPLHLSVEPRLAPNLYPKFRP
Description: In a typical enzyme assay, 5 μl spheroplasts and 4 μl NADPH:cytochrome P450 reductase (equivalent to 0.04 units defined as 1 μmol cytochrome c/min) are incubated with substrate in buffer containing 30 mM KPi, pH 7.5, 3 mM NADPH, 3 mM reduced glutathione, 0.042% Tween 80, 1 mg ml^−1 L-α-dilauroylphosphatidylcholine in a total volume of 30 μl. Reaction mixtures containing spheroplasts of E. coli C43(DE3) transformed with empty vector are used as controls in all assays. 3.3 μM L-[U-^14C]phenylalanine (453 mCi/mmol; Pharmacia), 3.7 μM L-[U-^14C]tyrosine (449 mCi/mmol; Pharmacia), 0.1 mM L-[methyl-^14C]methionine (56 mCi/mmol; Pharmacia), and 24 μM L-[side chain-3-^14C]tryptophan (56.5 mCi/mmol; NEN) are tested as potential substrates. After incubation at 28° C. for 1 hour, half of the reaction mixture is analyzed by TLC on Silica Gel 60 F254 sheets (Merck) using toluene/ethyl acetate 5:1 (v/v) as eluent. Radiolabelled bands are visualized and quantified using a STORM 840 phosphoimager (Pharmacia). For GC-MS analysis, 450 μl reaction mixture containing 3.3 mM L-methionine (Sigma), 3.3 mM DL-dihomomethionine or 3.3 mM DL-trihomomethionine, respectively, are incubated for 4 hours at 25° C. and extracted with a total volume of 600 μl CHCl3. The organic phase is collected, evaporated, and the residue is dissolved in 15 μl CHCl3 and analyzed by GC-MS. […] An SGE column (BPX5, 25 m×0.25 mm, 0.25 μm film thickness) is used (heat pressure 100 kPa, splitless injection). The oven temperature program is as follows: 80° C. for 3 minutes, 80° C. to 180° C. at 5° C. min^−1, 180° C. to 300° C. at 20° C. min^−1, and 300° C. for 10 min. The ion source is run in EI mode (70 eV) at 200° C. […] DL-dihomomethionine, DL-trihomomethionine, 5-methylthiopentanaldoxime and 6-methylthiohexanaldoxime are synthesized as described (Dawson et al, J. Biol. Chem. 268: 27154-27159, 1993) and authenticated by NMR spectroscopy.

[1] = Non-enzymatic conversion of tryptophan under oxidative conditions; conditions: 100 mM H2O2, 1 mM MnCl2, 800 μM 2,4-dichlorophenol in 50 mM Tricine buffer, pH 8.0, no enzyme
CYP79B2 = molecular target: T2, CYP79B2; experiment: CYP79B2 activity in E. coli spheroplasts reconstituted with NADPH:cytochrome P450 reductase
Description: The activity of CYP79B2 is measured by reconstituting spheroplasts from E. coli expressing CYP79B2 with purified NADPH:cytochrome P450 reductase from Sorghum bicolor (L.) Moench. […] The reaction is incubated at 34° C. for 30 minutes, extracted two times with ethyl acetate and the ethyl acetate phase is analyzed by TLC using toluen:ethyl acetate 5:1 as eluent. Radiolabelled bands are visualized on a Storm 840 phosphorimager (Molecular Dynamics) and quantified with ImageQuant analysis software (Molecular Dynamics). Substrate specificity is investigated by substituting the ^14C-labelled tryptophan with ^14C-labelled tyrosine or phenylalanine. GC-MS is employed to verify the structure of the compound produced from tryptophan by recombinant CYP79B2. A 450 μl reaction mixture as described above containing 2 mM unlabelled tryptophan is incubated at 34° C. for 2 hours. The reaction mixture is extracted twice with 300 μl CHCl3 and lyophilized until dryness. GC-MS is performed with an HP5890 Series II gas chromatograph coupled to a Jeol JMS-AX505W mass spectrometer. Splitless injection on an SGE column (BPX5, 25 mm×0.25 mm, 0.25 μm film thickness) and a head pressure of 100 kPa are used.
Single colonies are grown overnight at 37° C. in LB medium containing 100 μg/ml ampicillin. 1 ml of the overnight culture is used to inoculate 75 ml TB medium containing 100 μg/ml ampicillin, 75 μg/ml δ-aminolevulinic acid, 1 mM thiamine and 1 mM IPTG. The TB cultures are grown for 44 hours at 125 rpm and 28° C.

[2] = substrate: N[C@@H](Cc1c[nH]c2ccccc12)C(=O)O; experiment: purified protein, by the assay type; conditions: other: native CYP79B2 construct; pH 7.9

| Molecule | production of the respective aldoxime by CYP79A2 (CYP79A2) | formation of the corresponding aldoxime by CYP79F1 (CYP79F1) | conversion rate to compound co-migrating with IAOX relative to CYP79B2 [1] | Vmax (CYP79B2; native CYP79B2 construct) | oxime production by CYP79B2 (CYP79B2; radiolabelled amino acid, TLC) | Km [2] |
| --- | --- | --- | --- | --- | --- | --- |
| N[C@@H](Cc1c[nH]c2ccccc12)C(=O)O [L-tryptophan] | does not result in production of detectable amounts of the respective aldoximes | did not result in the formation of detectable amounts of the corresponding aldoximes | approximately 0.7% | 97.2 pmol/h/μl spheroplast | production of a strong band that co-migrates with authentic IAOX standard |  |
| CYP79B2 (Arabidopsis thaliana) (protein) MNTFTSNSSDLTTTATETSSFSTLYLLSTLQAFVAITLVMLLKKLMTDPNKKKPYLPPGPTGWPIIGMIPTMLKSRPVFRWLHSIMKQLNTEIACVKLGNTHVITVTCPKIAREILKQQDALFASRPLTYAQKILSNGYKTCVITPFGDQFKKMRKVVMTELVCPARHRWLHQKRSEENDHLTAWVYNMVKNSGSVDFRFMTRHYCGNAIKKLMFGTRTFSKNTAPDGGPTVEDVEHMEAMFEALGFTFAFCISDYLPMLTGLDLNGHEKIMRESSAIMDKYHDPIIDERIKMWREGKRTQIEDFLDIFISIKDEQGNPLLTADEIKPTIKELVMAAPDNPSNAVEWAMAEMVNKPEILRKAMEEIDRVVGKERLVQESDIPKLNYVKAILREAFRLHPVAAFNLPHVALSDTTVAGYHIPKGSQVLLSRYGLGRNPKVWADPLCFKPERHLNECSEVTLTENDLRFISFSTGKRGCAAPALGTALTTMMLARLLQGFTWKLPENETRVELMESSHDMFLAKPLVMVGDLRLPEHLYPTVK |  |  |  |  |  | 21 µM |
